# Laboratory results published in US9999859B2, “Immobilized multi-layer artificial membrane for permeability measurements (PAMPA)” (CORNING INCORPORATED, priority 2005, dated 2018).
# Read-outs that look alike come from different tables or passages of the source.
# Legend:
# [1] = PAMPA permeability with subject invention membrane; type: in vitro ADME; conditions: for Papp at 5 h: PAMPA; for measured permeability with 10% methanol, 90% PBS as working buffer: 90% PBS versus PBS, FIG. 8
# Procedure: FIGS. 5-9 present various data relating to the subject invention. […] Then the filter plate 34 was coupled with the receiver plate 42 and the assembly was incubated in a humidity chamber without agitation at room temperature (except for a data set in FIG. 9, where the assembly was incubated in a humidity chamber without agitation at 37° C.) for 5 hours. At the end of the incubation, the plates 34, 42 were separated and 150 μL solution from each well 36, 44 of both the filter plate 34 and the receiver plate 42 was transferred to UV-transparent plates. The final concentrations of compounds in both donor wells and acceptor wells were analyzed by UV-plate reader. […] Where: • C0=initial compound concentration in donor well (mM) • CD (t)=compound concentration in donor well at time t. (mM) • CA (t)=compound concentration in acceptor well at time t.
# [2] = human oral absorption; cited from earlier work
# [3] = cited from earlier work
# [4] = PBS pH 7.4, room temperature, no agitation, 5 hours, read-out: Pe Subject Invention Membrane Results
# [5] = prior art PAMPA membrane, PBS pH 7.4, room temperature, no agitation
"Papp at 5 h [1, 4] [×10⁻⁶ cm/s]",SMILES,Human Absorption [2] [%],"Pe Prior Art Results [3, 5]",further results
0.09,NS(=O)(=O)c1cc2c(cc1Cl)NCNS2(=O)=O [hydrochlorothiazide],–,0.02 10^−6 cm/s,–
0.1,Nc1nc2c(ncn2COCCO)c(=O)[nH]1 [acyclovir],–,–,–
0.46,CC(C)(C)NCC(O)c1cc(O)cc(O)c1 (stereo not drawn) [terbutaline],60,0.05 10^−6 cm/s,–
5.73,O=C1NC(=O)C(c2ccccc2)(c2ccccc2)N1 [phenytoin],–,0.38 10^−6 cm/s,PAMPA permeability values found by the prior art ([3]; in words): low
4.92,Clc1cccc(Cl)c1N=C1NCCN1 [clonidine],100,1.5 10^−6 cm/s,–
2.64,CC(C)NCC(O)COc1cccc2[nH]ccc12 (stereo not drawn) [pindolol],–,–,–
0.18,CCN1CCCC1CNC(=O)c1cc(S(N)(=O)=O)ccc1OC (stereo not drawn) [sulpiride],–,–,–
0.16,O=C(O)c1cc(/N=N/c2ccc(S(=O)(=O)Nc3ccccn3)cc2)ccc1O [sulphasalazine],13,0.00 10^−6 cm/s,–
6.3,O=C(O)Cc1ccccc1Nc1c(Cl)cccc1Cl [diclofenac],–,–,–
0.04,NC(N)=Nc1nc(CSCCC(N)=NS(N)(=O)=O)cs1 [famotidine],40,0.06 10^−6 cm/s,–
4.29,COCCc1ccc(OCC(O)CNC(C)C)cc1 (stereo not drawn) [metoprolol],–,–,PAMPA permeability values found by the prior art ([3]; in words): low
0.21,CCCC(=O)Nc1ccc(OCC(O)CNC(C)C)c(C(C)=O)c1 (stereo not drawn) [acebutolol],50,–,–

# Continued, compound first:
SMILES,"Papp at 5 h [1, 4] [×10⁻⁶ cm/s]",Human Absorption [2] [%],"Pe Prior Art Results [3, 5]",further results
CNC(=C[N+](=O)[O-])NCCSCc1ccc(CN(C)C)o1 [ranitidine],–,61,–,"Pe Subject Invention Membrane Results ([1]; PBS pH 7.4, room temperature, no agitation, 5 hours): 0.45 10^−6 cm/s"
Cn1c(=O)c2c(ncn2C)n(C)c1=O [caffeine],–,–,–,PAMPA permeability values found by the prior art ([3]; in words): low
CC(C)(C)NC[C@H](O)COc1nsnc1N1CCOCC1 [timolol],4.45,–,0.61 10^−6 cm/s,PAMPA permeability values found by the prior art ([3]; in words): low
CC(=O)CC(c1ccccc1)c1c(O)c2ccccc2oc1=O (stereo not drawn) [warfarin],–,–,–,Papp at 5 h ([1]; pH 7.4): 5.28 ×10⁻⁶ cm/s
CN1C(C(=O)Nc2ccccn2)=C(O)c2ccccc2S1(=O)=O [piroxicam],4.02,100,2.64 10^−6 cm/s,–
NC(=O)N1c2ccccc2C=Cc2ccccc21 [carbamazepine],7.79,100,6.4 10^−6 cm/s,–
Clc1ccc(COC(Cn2ccnc2)c2ccc(Cl)cc2Cl)c(Cl)c1 (stereo not drawn) [miconazole],–,–,–,"measured permeability with 10% methanol, 90% PBS as working buffer [1]: can be measured"
Cc1cc(=O)n(-c2ccccc2)n1C [antipyrine],–,–,0.74 10^−6 cm/s,PAMPA permeability values found by the prior art ([3]; PAMPA): low
CC(C)(C)c1ccc(C(O)CCCN2CCC(C(O)(c3ccccc3)c3ccccc3)CC2)cc1 (stereo not drawn) [terfenadine],–,–,–,"measured permeability with 10% methanol, 90% PBS as working buffer [1]: can be measured"
COc1ccc2c(c1)c(CC(=O)O)c(C)n2C(=O)c1ccc(Cl)cc1 [indomethacin],6.24,–,–,–
N=C(N)NC(=O)c1nc(Cl)c(N)nc1N [amiloride],0.08,50,0.00 10^−6 cm/s,–
Cn1c(=O)c2[nH]cnc2n(C)c1=O [theophyline],–,–,–,"Pe Prior Art Results ([3]; PAMPA, pH 7.4): 0.04 10^−6 cm/s"
CC(C)Cc1ccc(C(C)C(=O)O)cc1 (stereo not drawn) [ibuprofen],4.39,–,2.4 10^−6 cm/s,–
CC(C(=O)O)c1cccc(C(=O)c2ccccc2)c1 (stereo not drawn) [ketoprofen],3.1,–,–,PAMPA permeability values found by the prior art ([3]; in words): low
CC(C)(C)NCC(O)COc1cccc2c1CC(O)C(O)C2 (stereo not drawn) [nadolol],0.16,30,0.28 10^−6 cm/s,–
